The record followed here is patent US8921404B2, “Azole derivatives in the form of lipase and phospholipase inhibitors” (Sanofi, priority 2005, dated 2014).

The structures appear in SMILES notation.

Sequence of hormone sensitive lipase, HSL (P15304 301-1068, change not shown): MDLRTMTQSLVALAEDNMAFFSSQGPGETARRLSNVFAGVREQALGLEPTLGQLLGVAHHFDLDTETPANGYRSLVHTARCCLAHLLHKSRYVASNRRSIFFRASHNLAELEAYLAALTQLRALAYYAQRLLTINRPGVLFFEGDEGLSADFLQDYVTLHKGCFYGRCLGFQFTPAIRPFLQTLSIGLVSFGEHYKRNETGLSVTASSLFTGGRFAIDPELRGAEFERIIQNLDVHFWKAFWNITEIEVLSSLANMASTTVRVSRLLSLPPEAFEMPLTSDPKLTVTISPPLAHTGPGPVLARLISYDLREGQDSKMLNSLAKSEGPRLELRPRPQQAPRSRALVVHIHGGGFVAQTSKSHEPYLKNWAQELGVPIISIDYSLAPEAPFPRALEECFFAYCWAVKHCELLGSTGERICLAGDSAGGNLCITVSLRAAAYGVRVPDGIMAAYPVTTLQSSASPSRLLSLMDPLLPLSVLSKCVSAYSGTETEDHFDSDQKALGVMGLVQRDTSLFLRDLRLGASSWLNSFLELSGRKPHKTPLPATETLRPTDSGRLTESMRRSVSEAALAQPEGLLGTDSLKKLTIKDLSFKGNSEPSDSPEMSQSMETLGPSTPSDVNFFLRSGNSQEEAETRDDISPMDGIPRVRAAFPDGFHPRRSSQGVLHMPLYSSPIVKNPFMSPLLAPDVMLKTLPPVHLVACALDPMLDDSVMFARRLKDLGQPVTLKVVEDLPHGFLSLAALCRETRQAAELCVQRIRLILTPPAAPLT

The first assay concerns the target hormone sensitive lipase, HSL (Rattus norvegicus (Rat), UniProt P15304). In words: HSL inhibition assay. The settings on record: partially purified HSL from rat fat cells; [3H]trioleoylglycerol substrate. The format is biochemical. The procedure:
1.1. Preparation of the Partially Purified HSL:
Isolated rat fat cells are obtained from epididymal adipose tissue from untreated male rats (Wistar, 220-250 g) by collagenase treatment in accordance with published methods (e.g. S, Nilsson et al., Anal. Biochem. 158, 1986, 399-407; G. Fredrikson et al., J. Biol. Chem. 256, 1981, 6311-6320; H. Tornquist et al., J. Biol. Chem. 251, 1976, 813-819). The fat cells from 10 rats are washed three times by flotation with 50 ml of homogenization buffer ([…] Tris/HCl, pH 7.4, 0.25 M sucrose, 1 mM ETDA, 1 mM DTT, 10 μg/ml leupeptin, 10 μg/ml antipain, 20 μg/ml pepstatin) each time and finally taken up in 10 ml of homogenization buffer. The fat cells are homogenized in a Teflon-in-glass homogenizer (Braun-Melsungen) by 10 strokes at 1500 rpm and 15° C. The homogenate is centrifuged (Sorvall SM24 tubes, 5000 rpm, 10 min, 4° C.). The subnatant between the layer of fat at the top and the pellet is removed and the centrifugation is repeated. The subnatant resulting therefrom is centrifuged again (Sorvall SM24 tubes, 20 000 rpm, 45 min, 4° C.). The subnatant is removed, and 1 g of heparin-Sepharose (Pharmacia-Biotech, CL-6B, washed 5× with 25 mM Tris/HCl, pH 7.4, 150 mM NaCl) is added. After incubation at 4° C. for 60 min (shaking at intervals of 15 min), the mixture is centrifuged (Sorvall SM24 tubes, 3000 rpm, 10 min, 4° C.). The supernatant is adjusted to pH 5.2 by adding glacial acetic acid and is incubated at 4° C. for 30 min. The precipitates are collected by centrifugation (Sorvall SS34, 12 000 rpm, 10 min, 4° C.) and suspended in 2.5 ml of 20 mM Tris/HCl, pH 7.0, 1 mM EDTA, 65 mM NaCl, 13% sucrose, 1 mM DTT, 10 μg/ml leupeptin/pepstatin/antipain. The suspension is dialyzed against 25 mM Tris/HCl, pH 7.4, 50% glycerol, 1 mM DTT, 10 μg/ml leupeptin, pepstatin, antipain at 4° C. overnight and then loaded onto a hydroxyapatite column (0.1 g per 1 ml of suspension, equilibrated with 10 mM potassium phosphate, pH 7.0, 30% glycerol, 1 mM DTT). The column is washed with four volumes of equilibration buffer at a flow rate of 20 to 30 ml/h. The HSL is eluted with one volume of equilibration buffer containing 0.5 M potassium phosphate and then dialyzed (see above) and concentrated 5- to 10-fold by ultrafiltration (Amicon Diaflo PM 10 Filter) at 4° C. The partially purified HSL can be stored at −70° C. for 4 to 6 weeks.
To prepare the substrate, 25-50 μCi of [3H]trioleoylglycerol (in toluene), 6.8 μmol of unlabeled trioleoylglycerol and 0.6 mg of phospholipids (phosphatidylcholine/phosphatidylinositol 3:1 w/v) are mixed, dried with N2 and then taken up in 2 ml of 0.1 M KPi (pH 7.0) by ultrasound treatment (Branson 250, microtip, setting 1-2, 2×1 min with an interval of 1 min). After addition of 1 ml of KPi and renewed ultrasound treatment (4×30 sec on ice with intervals of 30 sec), 1 ml of 20% BSA (in KPi) is added (final concentration of trioleoylglycerol 1.7 mM). For the reaction, 100 μl of substrate solution are pipetted into 100 μl of HSL solution (HSL prepared as above, diluted in 20 mM KPi, pH 7.0, 1 mM EDTA, 1 mM DTT, 0.02% BSA, 20 μg/ml pepstatin, 10 μg/ml leupeptin) and incubated at 37° C. for 30 min. Addition of 3.25 ml of methanol/chloroform/heptane (10:9:7) and of 1.05 ml of 0.1 M K2CO3, 0.1 M boric acid (pH 10.5) is followed by thorough mixing and finally centrifugation (800×g, 20 min). After phase separation, one equivalent of the upper phase (1 ml) is removed and the radioactivity is determined by liquid scintillation measurement.
1.3 Evaluation of the HSL-Inhibitory Effect:
Substances are normally tested in four independent mixtures. The inhibition of the HSL enzymatic activity by a test substance is determined by comparing with an uninhibited control reaction. The IC50 is calculated from an inhibition plot with at least 10 concentrations of the test substance. The GRAPHIT, Elsevier-BIOSOFT software package is used to analyze the data.
With `CC1CCN(C(=O)Oc2noc3cc(Cl)ccc23)CC1` [Example 1, 6-Chlorobenzo[d]isoxazol-3-yl 4-methylpiperidine-1-carboxylate], the IC50 (usually the concentration that gives 50% inhibition) stood at 0.12 µM.
For the compound `CC1CCN(C(=O)Oc2noc3ncccc23)CC1` [Example 2, Isoxazolo[5,4-b]pyridin-3-yl 4-methylpiperidine-1-carboxylate], half-maximal inhibition (IC50) required 0.12 µM.
Take `O=C(Oc1noc2cc(Cl)ccc12)N1CCC(C(F)(F)F)CC1` [Example 3, 6-Chlorobenzo[d]isoxazol-3-yl 4-trifluoromethylpiperidine-1-carboxylate]: half-maximal inhibition (IC50) was put at 0.1 µM.
With `CC1CCN(C(=O)Oc2nsc3ncccc23)CC1` [Example 4, Isothiazolo[5,4-b]pyridin-3-yl 4-methylpiperidine-1-carboxylate], the IC50 was found to be 0.1 µM.
Regarding `CC1CCN(C(=O)Oc2nsc3ccccc23)CC1` [Example 5, Benzo[d]isothiazol-3-yl 4-methylpiperidine-1-carboxylate], the IC50 was 0.1 µM.
Consider `CC1CCN(C(=O)Oc2noc3nc(Cl)ccc23)CC1` [Example 10, 6-Chloroisoxazolo[5,4-b]pyridin-3-yl 4-methylpiperidine-1-carboxylate], for which 0.67 µM corresponded to half-maximal inhibition (IC50).
On the same count and under the same terms, then `Cc1ccc2c(OC(=O)N3CCC(C)CC3)noc2n1` [Example 11, 6-Methylisoxazolo[5,4-b]pyridin-3-yl 4-methylpiperidine-1-carboxylate], with 0.26 µM.

The target of another assay is endothelial lipase (EL) (Homo sapiens (Human), UniProt Q9Y5X9). In words: EL inhibition assay. The settings on record: EL from conditioned medium of recombinant cell lines (CHO, HEK293); Bodipy phospholipid substrate. The format is biochemical. An excerpt: EL is released as secretory protein in high concentration into cell culture medium (conditioned medium) by recombinant cell lines (CHO, HEK293). This is employed as enzyme solution after concentration.
Sequence of endothelial lipase (EL) (Q9Y5X9 21-500, species assumed): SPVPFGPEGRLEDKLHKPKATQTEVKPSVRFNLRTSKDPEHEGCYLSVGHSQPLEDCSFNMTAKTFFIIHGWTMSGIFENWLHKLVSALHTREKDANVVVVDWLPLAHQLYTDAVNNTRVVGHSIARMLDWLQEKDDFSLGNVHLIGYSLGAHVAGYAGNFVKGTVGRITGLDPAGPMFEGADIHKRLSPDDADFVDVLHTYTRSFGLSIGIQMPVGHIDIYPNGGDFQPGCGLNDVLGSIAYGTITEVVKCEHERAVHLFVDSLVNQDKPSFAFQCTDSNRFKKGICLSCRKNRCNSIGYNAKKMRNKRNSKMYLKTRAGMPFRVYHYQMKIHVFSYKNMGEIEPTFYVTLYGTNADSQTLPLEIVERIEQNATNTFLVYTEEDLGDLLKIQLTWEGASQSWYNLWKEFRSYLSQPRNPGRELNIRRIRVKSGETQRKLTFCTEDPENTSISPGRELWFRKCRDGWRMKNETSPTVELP
The phospholipase-specific substrate 1,2-bis(4,4-difluoro-5,7-dimethyl-4-bora-3a,4a-diaza-s-indacene-3-undecanoyl)-sn-glycero-3-phosphocholine, (manufacturer Molecular Probes) is used to characterize the enzymatic activity of endothelial lipase and the effect of inhibitors. Hydrolysis of the A1 ester linkage of this phospholipid by the enzyme liberates the fluorescent dye Bodipy which can be detected after separation by thin-layer chromatography on an HPTLC plate (silica gel 60, Merck) or directly in the reaction vessel by measuring the fluorescence.
The substrate solution is prepared by taking up 100 μg of 1,2-bis(4,4-difluoro-5,7-dimethyl-4-bora-3a,4a-diaza-s-indacene-3-undecanoyl)-sn-glycero-3-phospho-choline (manufacturer Molecular Probes), 2.4 mg of tripalmitin (Sigma) and 7.9 mg of DOP—choline (1,2-dioleoyi-sn-glycero-3-phosphocholine) in 393 μl of chloroform and then transferring 157 μl into a fresh reaction vessel. After evaporation of the solvent, the lipid mixture is dissolved in 4 ml of 200 mM TRIS-HCl, 150 mM sodium chloride, pH=7.4, by sonication twice. […] After evaporation of the eluent, the plate is read in a fluorescence scanner. […]
As to `Cc1ccccc1CNC(=O)Nc1nsc2ccc([N+](=O)[O-])cc12` [Example 7, 1-(2-Methylbenzyl)-3-(5-nitrobenzo[d]isothiazol-3-yl)urea], the IC50 came to 14.6 µM.
For the compound `CCCCCCNC(=O)Nc1noc2ccccc12` [Example 8, 1-Benzo[d]isoxazol-3-yl-3-hexylurea], the IC50 worked out at 14.6 µM.
